Measurements published in US9649313B2, “Use of ITK inhibitors for the treatment of cancer” (The University of North Carolina at Chapel Hill, priority 2012, dated 2017).
pEC50, pIC50: −log10 of the molar value.

Columns and labels:
[1] = target: T1, ITK (Homo sapiens, UniProt Q08881); conditions: Riether et al., 2009, cited from earlier work
T1 construct: purchased Carna Biosciences
T1 sequence (Q08881 1-620): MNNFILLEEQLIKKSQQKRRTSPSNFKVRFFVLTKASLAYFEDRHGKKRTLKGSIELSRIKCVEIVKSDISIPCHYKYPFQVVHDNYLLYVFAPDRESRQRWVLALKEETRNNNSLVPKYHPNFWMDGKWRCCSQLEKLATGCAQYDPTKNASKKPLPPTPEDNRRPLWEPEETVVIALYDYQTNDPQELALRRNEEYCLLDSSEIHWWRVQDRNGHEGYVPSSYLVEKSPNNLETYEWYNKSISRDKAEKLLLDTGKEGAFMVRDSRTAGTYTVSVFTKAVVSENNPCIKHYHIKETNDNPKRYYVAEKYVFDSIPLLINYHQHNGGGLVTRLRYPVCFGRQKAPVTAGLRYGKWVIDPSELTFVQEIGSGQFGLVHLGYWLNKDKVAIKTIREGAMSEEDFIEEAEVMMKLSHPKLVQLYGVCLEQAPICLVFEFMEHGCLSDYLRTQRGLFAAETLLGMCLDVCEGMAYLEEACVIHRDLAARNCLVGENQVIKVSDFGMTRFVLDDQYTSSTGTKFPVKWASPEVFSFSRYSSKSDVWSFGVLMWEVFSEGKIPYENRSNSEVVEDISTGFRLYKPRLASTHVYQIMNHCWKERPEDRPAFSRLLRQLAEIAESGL

[2] = test system: A375 (ITKINT) melanoma cell line; experiment: single cell motility assay; format: cell-based, Human
Description: (§1) FIG. 5A-5C. Effects of BI 10N inhibitor on proliferation and motility of melanoma cells. FIG. 5A) Cell motility assays were performed as described in FIG. 4A-4E; however, the inhibitor BI 10N was added to the media to decrease ITK kinase activity in parental cell lines instead of using the shRNA ITK knockdown cell lines. BI 10N was added to the media 24 hours prior to the start of the motility assay and the VivaView camera system was used to image cellular motility of the melanoma cells as described previously. FIG. 5B) The proliferation assays were completed as described in FIG. 4A-4E, substituting the BI 10N compound for the shRNA. Cells were trypsinized and counted using the Invitrogen Countess. Fifty thousand cells were placed into each well of a 6 well plate and BI 10N was added to the indicated concentrations. The cells were counted with the Invitrogen Countess at 3, 5, and 6 or 7 days after plating to assess the proliferation rates of the different cell lines in the presence of BI 10N. FIG. 5C) Both ITKHI (RPMI 8322) and ITKLO (PMWK) melanoma cell lines were grown in the presence of BI 10N (10-200 nM) in soft agar. In 24-well cell culture plates 2,500 cells per well were added to a 1.4% agarose solution. The agarose and cell solution was then poured on top of a solidified base agar. The cells were incubated at 37° C. for three to four weeks to ensure adequate growth before analysis. FIG. 5D) Cell cycle analysis of PMWK, VMM 39, and RPMI 8322 cells that have been treated with increasing concentrations of BI 10N. Following 3 days of BI 10N treatment, the cells were incubated with EdU for 3 hours and were subsequently assessed for 5-ethynyl-2′-deoxyuridine (EdU) incorporation rate and DNA content with FxCycle Violet. Shown in this panel are the percentages of cells in G0/G1 (low DNA and EdU content), S (high EdU and low-to-medium DNA content), and G2/M (Low EdU and high DNA content)
(§2) Single cell tracking was performed as described (Williams et al., 2012 Circ Res 111(1):56-65). Briefly melanoma cells were plated on 5 μg/cm2 collagen coated MatTek dishes (MatTek Corp., Ashland, Mass. part #P35G-1.5-10-C) and allowed to attach for 24 hours in the presence of either DMSO (1:1000) or BI 10N in DMSO. Cells were monitored for 16 hours using the Olympus VivaView live cell imaging microscope system. Images were taken at a magnification of 10× and were converted to stacks using Image J software. Single-cells were tracked using Image J manual tracking software and velocities were obtained.

[3] = test system: SKMEL 153 (ITKHI) melanoma cell line; experiment: single cell motility assay; format: cell-based, Human; conditions: 10-25 nM
Description: as §1, §2

[4] = test system: SKMEL 103 (ITKINT) melanoma cell line; experiment: single cell motility assay; format: cell-based, Human
Description: as §1, §2

[5] = test system: SKMEL 131 (ITKLO) melanoma cell line; experiment: single cell motility assay; format: cell-based, Human
Description: as §1, §2

[6] = test system: VMM 39 (ITKHI) xenograft tumors; experiment: melanoma xenograft mouse model; format: in vivo, nude mice; conditions: VMM 39 xenograft; 15 mg per kg in food
Description: (§3) FIG. 6A-6F. Effects of BI 10N inhibitor on growth of melanoma xenografts in vivo. FIG. 6A-6C) Cell lines RPMI 8322 (ITKHI), VMM 39 (ITKHI), and A375 (ITKINT) were grown as described previously, suspended in matrigel and injected into the flanks of nude mice as described in the Materials and Methods section. The mice received either BI 10N at a concentration of 15 mpk or no treatment. Mice were then followed to assess the effect of the treatments on tumor progression. FIG. 6D-6F) Effect of BI 10N (15mpk) on tumor growth (mean and standard error of mean) in A375, RPMI 8322, and VMM 39 melanoma xenografts. […] Samples sizes are indicated in parentheses.
(§4) Nude athymic animals were acquired through the UNC Animal Studies Core and are similar to Jackson Labs (strain 000819). Mice were aged to 10 weeks and inoculated in the hind flank with 500K cells suspended in a 50/50 solution of Hank's Solution plus 2% FBS and matrigel (BD cat#356234). Once weekly caliper measurements of the length and width of the tumors were recorded; volume was then calculated using the formula ((L^2)×W)/2. Treatment began when a tumor reached an approximate size of 60 mm^3. Mice received compounds orally via admixture with standard rodent diet (Research Diets, Inc; New Brunswick, N.J.) or the same diet for non-treated mice as per MP1U (mouse phase I unit) protocol (Roberts et al., 2012 Clin Cancer Res 18(19):5290-5303). Tissues were cut in half and either flash frozen and then stored at −80 or formalin-fixed/paraffin embedded.

[7] = test system: RPMI 8322 (ITKHI) xenograft tumors; experiment: melanoma xenograft mouse model; format: in vivo, nude mice; conditions: RPMI 8322 xenograft; 15 mg per kg in food
Description: as §3, §4

[8] = test system: A375 (ITKINT) xenograft tumors; experiment: melanoma xenograft mouse model; format: in vivo, nude mice; conditions: 15 mg per kg in food
Description: as §3, §4

## CC(C)C(C)CNCc1ccc2c(c1)[nH]/c(=N\C(=O)c1ccc(C3=CN=NC3)s1)n2CC(C)(C)O (stereo not drawn) [BI 10N]
[1]; read-out: EC50 (selective inhibitor of ITK)
  pEC50: 9.00
[1]; read-out: IC50 (inhibit ITK)
  pIC50: 9.00
[2]
  concentration required for smaller changes in migration: ≥ 150 nM
[2]; 10-25 nM
  effect on migration: unaffected
[3]
  decrease in migration: about 50%
[4]
  concentration required for smaller changes in migration: ≥ 150 nM
[4]; 10-25 nM
  effect on migration: unaffected
[5]
  concentration required for smaller changes in migration: ≥ 150 nM
[5]; 10-25 nM
  effect on migration: do not decrease
[6]
  tumor growth: significantly slowed
[7]
  tumor growth: significantly slowed
[8]
  tumor growth: did not slow
